Patent US20260055065A1, “PYRIDAZINONE COMPOUNDS WHICH MODULATE MUTANT PROTEINS FOR TREATING RESPIRATORY DISEASES” (The Hospital for Sick Children, priority 2022, published 2026)

How the values were obtained:
deltaF508 CFTR = target: T1, deltaF508 CFTR (Homo sapiens, UniProt P13569, DEL508-508); test: CFBE potentiator assay (FLIPR membrane potential, temperature-rescued); assay type: cell-based; settings: CFBE cells, 3 micromolar forskolin; read-out: CFBE potentiator assay pot. pEC50 (converted)
T1 construct: host or cells: CFBE (cystic fibrosis bronchial-derived cell line)
T1 sequence (P13569 with tags, fused parts or gaps DEL508-508): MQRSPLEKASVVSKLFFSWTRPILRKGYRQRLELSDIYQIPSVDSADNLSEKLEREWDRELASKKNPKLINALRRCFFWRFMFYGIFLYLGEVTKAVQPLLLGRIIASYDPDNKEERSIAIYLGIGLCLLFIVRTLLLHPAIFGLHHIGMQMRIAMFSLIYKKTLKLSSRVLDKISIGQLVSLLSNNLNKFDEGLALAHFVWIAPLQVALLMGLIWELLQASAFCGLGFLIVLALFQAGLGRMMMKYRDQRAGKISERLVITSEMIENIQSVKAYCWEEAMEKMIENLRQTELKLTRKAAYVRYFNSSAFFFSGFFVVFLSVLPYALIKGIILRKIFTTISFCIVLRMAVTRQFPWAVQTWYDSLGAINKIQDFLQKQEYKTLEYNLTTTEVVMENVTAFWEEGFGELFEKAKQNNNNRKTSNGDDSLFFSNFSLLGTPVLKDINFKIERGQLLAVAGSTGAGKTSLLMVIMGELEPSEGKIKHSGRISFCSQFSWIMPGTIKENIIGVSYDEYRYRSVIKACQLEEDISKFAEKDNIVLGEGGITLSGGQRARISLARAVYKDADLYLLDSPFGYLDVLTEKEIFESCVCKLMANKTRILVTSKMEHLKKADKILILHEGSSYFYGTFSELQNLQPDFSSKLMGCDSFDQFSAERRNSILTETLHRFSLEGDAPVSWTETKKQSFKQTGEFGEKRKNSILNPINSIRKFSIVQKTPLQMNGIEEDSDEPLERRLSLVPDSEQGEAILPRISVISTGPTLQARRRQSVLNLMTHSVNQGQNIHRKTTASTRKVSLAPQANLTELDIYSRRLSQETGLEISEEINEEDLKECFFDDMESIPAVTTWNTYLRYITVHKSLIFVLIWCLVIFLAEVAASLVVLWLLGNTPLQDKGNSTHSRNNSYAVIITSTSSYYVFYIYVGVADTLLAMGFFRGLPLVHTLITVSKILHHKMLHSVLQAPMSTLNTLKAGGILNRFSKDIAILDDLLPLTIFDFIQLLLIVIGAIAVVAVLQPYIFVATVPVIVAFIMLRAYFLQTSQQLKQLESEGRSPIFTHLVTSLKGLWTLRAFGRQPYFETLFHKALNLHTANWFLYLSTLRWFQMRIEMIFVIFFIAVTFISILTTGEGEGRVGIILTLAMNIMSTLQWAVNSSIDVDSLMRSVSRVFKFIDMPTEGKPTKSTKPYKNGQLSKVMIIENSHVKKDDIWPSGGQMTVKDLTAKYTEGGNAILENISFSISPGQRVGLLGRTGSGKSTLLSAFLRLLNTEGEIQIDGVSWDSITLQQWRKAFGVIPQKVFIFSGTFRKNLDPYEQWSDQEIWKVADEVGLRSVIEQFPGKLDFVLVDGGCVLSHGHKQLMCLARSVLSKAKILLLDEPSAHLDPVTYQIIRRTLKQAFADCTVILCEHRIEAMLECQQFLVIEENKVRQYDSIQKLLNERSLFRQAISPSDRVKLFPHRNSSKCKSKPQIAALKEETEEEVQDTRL
Description: Cell culture: HEK293 cells stably expressing human deltaF508 CFTR were cultured in DMEM/F12 medium containing 10% fetal bovine serum (FBS) and 600 micrograms/mL geneticin. For functional CFTR assays, cryo-preserved cells were quickly thawed in a 37° C. water bath, diluted with warm DMEM/F12 medium containing 10% FBS, spun down at 300×g for 5 mins and resuspended in the same medium at a density of 300,000 cells/mL. A cystic fibrosis bronchial-derived cell line complemented with a 4.7 Kb deltaF508 CFTR cDNA (“CFBE”) was obtained from Dr. Dieter Gruenert under a license from UCSF. These cells were cultured in MEM with Earle's salt (Invitrogen)supplemented with 10% fetal bovine serum (Invitrogen) and 300 micrograms/mL hygromycin (Millipore). CFBE cells were grown on flasks coated with a fibronectin solution containing LHC basal medium (Invitrogen), 0.001% bovine serum albumin (Sigma), 1% v/v Vitrogen 100 (BD Bioscience) and 10 micrograms/mL human fibronectin (Life Technologies). All cells were grown at 37° C. and 5% CO2 unless specified for an assay.
CFBE potentiator assay: CFBE cells were dissociated for 10 mins at 37° C. with Hank's balanced salt solution containing 0.6 mM EDTA and 10% of a 0.25% Trypsin/EDTA solution (all from Life Technologies). An equal amount of CFBE cell growth medium (see Cell culture above) was then added to the flasks and cells were spun at 500×g for 10 mins. Cells were re-suspended in cell medium at a density of 150,000 cells/mL and plated in 384-well black, poly-D-Lysine-coated plates (7,500 cells/well). Cells were then grown at 37° C., 5% CO2 for a total of 6-8 days to allow differentiation. Cell medium was changed every 2-3 days. The day before each experiment, culture medium was removed, fresh culture medium was added and cells were placed at 30° C., 5% CO2 for 18-24 hrs to allow temperature rescue of delF508 CFTR. Potentiation activity was measured as described above for HEK cells except cells were stained for exactly 60 mins, compounds (or DMSO for negative control) were mixed with assay buffer containing 3 micromolar forskolin, and the positive control wells had assay buffer containing 3 micromolar forskolin and 9 micromolar VX-770 (Selleckchem).
Data analysis: CFTR activity was defined as maximum fluorescence signal after addition minus baseline fluorescence. All data were normalized to each plate's positive and negative controls and expressed as percent responses. Concentration response curves were analyzed by fitting the data to a 4-parameter logistic equation in Microcal's Origin or IDBS' Activity Base software.

Wt-CFTR = Wt-CFTR (Homo sapiens, UniProt P13569); test: Calu-3 CSE experiments, FLiPR assay of CFTR channel activity; assay type: cell-based; design: this airway epithelial cell line endogenously expresses this channel; endogenous in cells; host or cells: Calu-3
Chain of Wt-CFTR (P13569 whole entry): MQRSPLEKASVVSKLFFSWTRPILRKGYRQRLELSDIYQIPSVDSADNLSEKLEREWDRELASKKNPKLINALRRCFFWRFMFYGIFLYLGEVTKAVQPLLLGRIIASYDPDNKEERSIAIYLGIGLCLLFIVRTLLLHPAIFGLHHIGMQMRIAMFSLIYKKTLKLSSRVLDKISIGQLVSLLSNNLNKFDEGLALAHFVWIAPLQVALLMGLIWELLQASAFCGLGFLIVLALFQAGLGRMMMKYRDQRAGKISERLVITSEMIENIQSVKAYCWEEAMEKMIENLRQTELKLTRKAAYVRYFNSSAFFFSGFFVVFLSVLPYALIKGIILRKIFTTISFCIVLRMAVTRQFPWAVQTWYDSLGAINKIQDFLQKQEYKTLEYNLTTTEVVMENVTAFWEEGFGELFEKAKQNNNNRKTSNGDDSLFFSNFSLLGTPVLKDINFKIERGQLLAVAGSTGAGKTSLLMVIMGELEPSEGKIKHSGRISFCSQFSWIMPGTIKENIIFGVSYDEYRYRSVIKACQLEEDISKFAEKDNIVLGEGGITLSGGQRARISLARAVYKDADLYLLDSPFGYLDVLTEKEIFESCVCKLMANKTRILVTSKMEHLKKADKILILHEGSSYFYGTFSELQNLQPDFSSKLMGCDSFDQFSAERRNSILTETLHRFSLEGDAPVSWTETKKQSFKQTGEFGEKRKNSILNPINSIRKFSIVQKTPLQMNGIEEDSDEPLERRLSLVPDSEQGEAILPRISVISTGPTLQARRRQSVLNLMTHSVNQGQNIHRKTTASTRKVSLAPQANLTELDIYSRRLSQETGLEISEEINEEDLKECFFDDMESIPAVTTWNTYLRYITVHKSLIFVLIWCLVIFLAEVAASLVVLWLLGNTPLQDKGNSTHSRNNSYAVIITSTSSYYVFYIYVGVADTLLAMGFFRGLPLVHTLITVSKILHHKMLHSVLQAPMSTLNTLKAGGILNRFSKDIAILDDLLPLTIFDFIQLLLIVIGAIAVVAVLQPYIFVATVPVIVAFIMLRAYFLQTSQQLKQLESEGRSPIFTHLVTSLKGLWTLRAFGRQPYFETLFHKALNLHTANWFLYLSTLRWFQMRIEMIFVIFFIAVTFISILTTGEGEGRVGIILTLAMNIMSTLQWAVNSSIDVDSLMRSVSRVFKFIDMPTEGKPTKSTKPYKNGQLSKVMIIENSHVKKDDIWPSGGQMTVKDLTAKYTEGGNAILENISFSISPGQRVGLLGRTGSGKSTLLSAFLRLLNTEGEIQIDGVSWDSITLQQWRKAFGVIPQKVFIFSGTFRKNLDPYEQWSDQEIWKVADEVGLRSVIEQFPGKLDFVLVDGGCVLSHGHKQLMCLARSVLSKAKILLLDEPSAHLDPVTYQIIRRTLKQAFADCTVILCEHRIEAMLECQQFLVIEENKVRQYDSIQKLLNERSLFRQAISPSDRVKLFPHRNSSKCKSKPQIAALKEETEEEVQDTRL
Description: Addition of CFTR-inhibitor indicated with grey arrow. Superimposed, we show the effect of acute co-application of VX-770 (open squares) or SK-POT (open triangles) with forskolin. […] Only SK-POT rescued CFTR channel function in the presence of cigarette smoke extract.
Calu-3 cells were cultured using EMEM (Wisent) supplemented with FBS at 20% (v/v) and 1× Penicillin/Streptomycin (Wisent). Calu-3 cells were seeded on clear-bottom, black-walled 96 well plates (Costar, Corning) at a density of 10,000 cells/well and cultured for 2 days post-confluence. Cells then received the chronic treatment of toxin and potentiator. The toxin treatment consisted of either cigarette smoke extract (CSE) prepared in 100% DMSO (University of Alabama at Birmingham), dissolved at a concentration of 2% (v/v) in Calu-3 medium, with an equivalent concentration of DMSO alone serving as the toxin control. The chronic drug treatment was co-applied with the toxin, which included either VX-770 or Compound 11 (both prepared in 100% DMSO) dissolved in Calu-3 medium at a final concentration of 1 μm. VX-770 (Vertex) and Compound 11 solutions were prepared from 1 mM stocks. The control for the drug treatment was the vehicle, DMSO at an equivalent volume. Combining the two toxin treatments and three drug treatments, a total of six treatments were applied chronically to 4 wells per condition, for a total of 24 wells receiving chronic treatment.
Cells were cultured for an additional 24 hours after chronic treatment application, after which cells were incubated with FLiPR assay buffer. The FLiPR assay buffer consisted of blue FLiPR dye (Molecular Devices) dissolved at a concentration of 0.5 mg/mL in chloride-free buffer (150 mM NMDG, 150 mM gluconolactone, 3 mM potassium gluconate, 300 mOsm and pH 7.38). Buffer was incubated with cells at 37 degrees and 5% CO2 for 35 minutes. CFTR function was assessed by measuring changes in fluorescence activity after acute CFTR channel activation by addition of cAMP agonist forskolin dissolved in chloride-free buffer to a final concentration 1 μm, using the SpectraMax i3x multimodal plate reader. Fluorescence readings (excitation 530 nm; emission 560 nm) for each well were taken at 30-second intervals for 5 minutes (baseline) or 10 minutes (activation). CFTR activity was then terminated by addition of CFTR-inhibitor 172 dissolved in chloride-free buffer to a concentration of 10 μm, to further verify the specificity of the response to CFTR activity. Fluorescence changes were recorded at 30-second intervals for another 10 minutes. In analysis, all fluorescence values were normalized per well to the final reading prior to the addition of forskolin and expressed as a percentage of this reading.

EC50 (deltaF508 CFTR): 0.01 µM
EC90 (Wt-CFTR; Calu-3, CFTR channel potentiation, read-out: approximate EC90): ~1 µM
SMILES: CC(C)(C)c1ccc(-n2nc(-c3ccc(F)cc3)c(N3CCCCC3)c(N)c2=O)cc1O [Compound 11, 4-amino-2-(4-(tert-butyl)-3-hydroxyphenyl)-6-(4-fluorophenyl)-5-(piperidin-1-yl)pyridazin-3(2H)-one]
forskolin-activated CFTR channel activity after CSE exposure (Wt-CFTR; Calu-3, CSE 2%, compounds 1 uM): significant increase in forskolin-activated CFTR channel activity
